Measured values from article PMC7311426, “An amphipathic peptide with antibiotic activity against multidrug-resistant Gram-negative bacteria” (Nature Communications, 2020).
Converted amounts (≈) assume the structure as drawn. Read-outs that look alike come from different tables or passages of the source.

Tests used:
K. pneumoniae = experiment: microbe, parasite or virus in culture; type: cell-based, Klebsiella pneumoniae; settings: for MIC: Klebsiella pneumoniae
E. coli = tested on: E. coli; design: method as in Hasman H, et al. Euro. Surveill. (2015) 20:49; settings: E. coli ESBL20150072, mcr-1 pos; ESBL; CAMHB; comparator antibiotics; ref Hasman H, et al. Euro. Surveill. (2015) 20:49; cited from earlier work
[1] = K. pneumoniae ATCC 700603, ESBL, OXA-2/SHV-18, BMD with 5% Survanta lung surfactant, mode, or median where no mode, n=4 to 6, where n=2 differs the higher value
[2] = K. pneumoniae ATCC 700603, ESBL, OXA-2/SHV-18, BMD with 5% Survanta lung surfactant, replicate 1
[3] = K. pneumoniae ATCC 700603, ESBL, OXA-2/SHV-18, BMD with 5% Survanta lung surfactant, replicate 2
[4] = K. pneumoniae ATCC 700603, ESBL, OXA-2/SHV-18, BMD with 50% human serum, mode, or median where no mode, n=4 to 6, where n=2 differs the higher value
[5] = K. pneumoniae ATCC 700603, ESBL, OXA-2/SHV-18, BMD with 50% human serum, replicate 1
[6] = K. pneumoniae ATCC 700603, ESBL, OXA-2/SHV-18, BMD with 50% human serum, replicate 2
[7] = K. pneumoniae BAA-2146, NDM-1, BMD with 5% Survanta lung surfactant, mode, or median where no mode, n=4 to 6, where n=2 differs the higher value
[8] = K. pneumoniae BAA-2146, NDM-1, BMD with 5% Survanta lung surfactant, replicate 1
[9] = K. pneumoniae BAA-2146, NDM-1, BMD with 5% Survanta lung surfactant, replicate 2
[10] = K. pneumoniae BAA-2146, NDM-1, BMD with 5% Survanta lung surfactant, replicate 3
[11] = K. pneumoniae BAA-2146, NDM-1, BMD with 5% Survanta lung surfactant, replicate 4
[12] = ATCC13883, read-out: MIC, Serum (50%)
[13] = ATCC700603, read-out: MIC, Serum (50%)
[14] = ATCC700603, read-out: MIC, Survanta (5%)
[15] = BAA2146, read-out: MIC, Survanta (5%)

With COc1cc(Cc2cnc(N)nc2N)cc(OC)c1OC [Trimethoprim] the “MIC, Serum (50%)” value (K. pneumoniae) was 0.5, the “MIC, Serum (50%) replicates” value (K. pneumoniae) was 0.5 and the “MIC, Survanta (5%)” value (K. pneumoniae) was 1. The “MIC, Survanta (5%)” value (K. pneumoniae; [1]) was 4, the “MIC, Survanta (5%) replicates” value (K. pneumoniae; [2]) was 4 and the “MIC, Survanta (5%) replicates” value (K. pneumoniae; [3]) was 2. For the same compound, the “MIC, Serum (50%)” value (K. pneumoniae; [4]) was 32, the “MIC, Serum (50%) replicates” value (K. pneumoniae; [5]) was 32 and the “MIC, Serum (50%) replicates” value (K. pneumoniae; [6]) was 16. The “MIC, Survanta (5%)” value (K. pneumoniae; [7]) was over 64, the “MIC, Survanta (5%) replicates” value (K. pneumoniae; [8]) was over 64 and the “MIC, Survanta (5%) replicates” value (K. pneumoniae; [9]) was over 64. For the same compound, the “MIC, Survanta (5%) replicates” value (K. pneumoniae; [10]) was over 64, the “MIC, Survanta (5%) replicates” value (K. pneumoniae; [11]) was over 64 and the MIC (K. pneumoniae; [12]) was 0.5 µg/mL (≈ 1.72 µM). It also gave an MIC (K. pneumoniae; ATCC13883, read-out: MIC, Survanta (5%)) of 1 µg/mL (≈ 3.44 µM), an MIC (K. pneumoniae; [13]) of 32 µg/mL (≈ 110 µM) and an MIC (K. pneumoniae; [14]) of 4 µg/mL (≈ 13.8 µM). For the same compound, the MIC (K. pneumoniae; [15]) was over 64 µg/mL.
For O=C(O)c1cn(C2CC2)c2cc(N3CCNCC3)c(F)cc2c1=O [Ciprofloxacin, ciprofloxacin], the “MIC, Survanta (5%) replicates” value (K. pneumoniae; K. pneumoniae ATCC 13883, type strain, BMD with 5% Survanta lung surfactant, replicate 1) was 0.5, the “MIC, Survanta (5%) replicates” value (K. pneumoniae; K. pneumoniae ATCC 13883, type strain, BMD with 5% Survanta lung surfactant, replicate 2) was 0.5 and the “MIC, Survanta (5%) replicates” value (K. pneumoniae; K. pneumoniae ATCC 13883, type strain, BMD with 5% Survanta lung surfactant, replicate 3) was 0.125. For the same compound, the “MIC, Survanta (5%) replicates” value (K. pneumoniae; K. pneumoniae ATCC 13883, type strain, BMD with 5% Survanta lung surfactant, replicate 4) was 0.125, the “MIC, Serum (50%) replicates” value (K. pneumoniae; K. pneumoniae ATCC 13883, type strain, BMD with 50% human serum, replicate 1) was at most 0.03 and the “MIC, Serum (50%) replicates” value (K. pneumoniae; K. pneumoniae ATCC 13883, type strain, BMD with 50% human serum, replicate 2) was at most 0.03. For the same compound, the “MIC, Serum (50%)” value (K. pneumoniae; K. pneumoniae ATCC 13883, type strain, BMD with 50% human serum, where n=2 differs the higher value is recorded) was at most 0.03, the “MIC, Survanta (5%)” value (K. pneumoniae; [1]) was 1 and the “MIC, Survanta (5%) replicates” value (K. pneumoniae; [2]) was 2. For the same compound, the “MIC, Survanta (5%) replicates” value (K. pneumoniae; [3]) was 2, the “MIC, Survanta (5%) replicates” value (K. pneumoniae; K. pneumoniae ATCC 700603, ESBL, OXA-2/SHV-18, BMD with 5% Survanta lung surfactant, replicate 3) was 0.5 and the “MIC, Survanta (5%) replicates” value (K. pneumoniae; K. pneumoniae ATCC 700603, ESBL, OXA-2/SHV-18, BMD with 5% Survanta lung surfactant, replicate 4) was 1. The “MIC, Serum (50%)” value (K. pneumoniae; [4]) was 0.125, the “MIC, Serum (50%) replicates” value (K. pneumoniae; [5]) was 0.125 and the “MIC, Serum (50%) replicates” value (K. pneumoniae; [6]) was 0.06. The “MIC, Survanta (5%)” value (K. pneumoniae; [7]) was over 64, the “MIC, Survanta (5%) replicates” value (K. pneumoniae; [8]) was over 64 and the “MIC, Survanta (5%) replicates” value (K. pneumoniae; [9]) was over 64. For the same compound, the “MIC, Survanta (5%) replicates” value (K. pneumoniae; [10]) was over 64, the “MIC, Survanta (5%) replicates” value (K. pneumoniae; [11]) was over 64 and the MIC (K. pneumoniae; [12]) was at most 0.03 µg/mL. It also gave an MIC (K. pneumoniae; [13]) of 0.125 µg/mL (≈ 0.377 µM), an MIC (K. pneumoniae; [14]) of 1 µg/mL (≈ 3.02 µM) and an MIC (K. pneumoniae; [15]) of over 64 µg/mL. For the same compound, the “BMD MIC” value (E. coli) was over 2 µg/mL.
